{"source": "patent US20220047538A1", "about": "“TUFT CELL SPECIFICATION IN INFLAMMATORY ILEITIS” (VANDERBILT UNIVERSITY, priority 2019, published 2022)", "key": {"[1]": {"test_system": "cytokine levels", "assay": "Multiplex Luminex cytokine levels in short-term succinate-treated TNFΔARE/+ animals"}, "[2]": {"test_system": "TNF^ΔARE/+ model of Crohn's-like ileitis", "settings": "TNFΔARE/+ ileum", "experimental": "Mouse Experiments: All animal protocols were approved by the Vanderbilt University Animal Care and Use Committee and in accordance with NIH guidelines. Lrig1^CreERT2 and Atoh1^flox/flox strains, each in a C57BL/6 background, were purchased from Jackson Laboratory to generate Lrig1^CreERT2/+; Atoh1^fl/fl (AtohKO) animals Cre recombinase activity was induced in two- or three-month-old Lrig1^CreERT2/+; Atoh1^fl/fl and Lrig1^+/+; Atoh1^fl/fl males via intraperitoneal administration of 2 mg of tamoxifen (Sigma-Aldrich) for four consecutive days. Mice were sacrificed and tissues were harvested twenty-one days after the first injection. TNF^ΔARE/+ and wildtype littermates were sacrificed at four months of age after disease onset, followed by tissue collection Animal weights were recorded at regular intervals.\n(§1) Mid-dose antibiotics and low-dose antibiotics were 0.75× and 0.25× of the original 1× concentration, respectively.\n(§2) Immunofluorescence staining and imaging: Paraffin-embedded ileal tissues were section (5 μm) prior to deparaffinization, rehydration, and antigen retrieval using a citrate buffer (pH 6.0) for 20 minutes in a pressure cooker at 105° C., followed by a 20-minute cool down at room temperature (RT). Endogenous background signal was quenched by incubating tissue slides in 3% hydrogen peroxide for 10 minutes at RT. Tissue sections were blocked in staining buffer (3% bovine serum albumin/10% normal donkey serum) for 1 hour at RT prior to incubation with primary antibody overnight at RT. Antibodies used for immunofluorescence included those against LYZ1 (DAKO, 1:100, rabbit), MUC2 (Santa Cruz, 1:100, rabbit), MPO (DAKO, 1:100, rabbit), DCLK1 (Santa Cruz, 1:100, goat), FOXP3 (eBioscience, 1:50, rat), and GATA3 (Abcam, 1:50, rabbit). Sections were then incubated with AlexaFluor (AF)-555- or AF-647-conjugated secondary antibodies (Life Technologies, 1:500) for 1 hour at RT and Hoechst (1:10,000, Life Technologies) for 10 min at RT. For human tuft cell labeling, AF-488-conjugated pEGFR (Abcam, 1:100) and unconjugated COX2 (CST, 1:100, rabbit) were used. Slides were incubated with anti-rabbit AF-647-conjugated secondary antibody and stained with Hoechst. Imaging was performed using a Zeiss Axio Imager M2 microscope with Axiovision digital imaging system (Zeiss, Jena GmBH, Germany).\nImage quantification: To quantify human tuft cells, the number of crypt and villus structures were counted per field of view (FOV) for each subject (approximately 15-20 FOVs per sample). Tuft cell number, as identified by pEGFR and COX co-labeling, was manually counted per FOV in a blinded fashion. Quantification of tuft cell number per epithelial structure (crypt and villus) was generated for each subject and then stratified by disease state (“normal” or “Crohn's disease”) based on the pathology report. Results were analyzed by t-test using Prism GraphPad. For MUC2 quantification, manual demarcation of the epithelial villi was performed in each FOV and a nuclear mask was generated based on Hoechst staining."}, "[3]": {"test_system": "tuft cells", "experimental": "as §2"}, "[4]": {"test_system": "ATOH1-independent tuft cells", "settings": "antibiotic-treated AtohKO animals; small intestine", "source_text": "as §1"}, "[5]": {"test_system": "TCA cycle genes"}, "[6]": {"test_system": "AtohKO enteroids", "assay": "IL-13 administration in enteroids", "type": "cell-based, mouse", "settings": "level similar to IL-13 in control enteroids", "experimental": "Enteroid Experiment: Ileal tissue was dissected and incubated in chelation buffer (3 mM EDTA/EGTA, 0.5 mM DTT, 1% P/S) at 4° C. for 45 minutes. The tissue was shaken in PBS and filtered through a 100 μm filter to isolate individual ileal crypts. The crypt suspension was centrifuged at 2.8×1000 RPM for 1½ minutes at 4° C. following which 10 μl of crypt pellet was resuspended in 300 μl of reduced growth factor Matrigel and embedded in a 24-well dish. Enteroids were cultured initially in IntestiCult Organoid Growth Medium (StemCell Technologies) supplemented with Primocin antimicrobial reagent (InvivoGen, 1:1000) for 4 days before being changed to Primocin-supplemented differentiation media. For ex vivo Cre-activation, Lrig1^CreERT2/+ Atoh1^fl/fl enteroids were treated overnight at 37° C. with either 1 μM 4-hydroxytamoxifen (Sigma-Aldrich) or vehicle (ethanol) in differentiation media. Enteroids were passaged the following day into 8-well chamber slides and, after 5 days, were fixed on ice using 4% PFA for immunofluorescence staining.\nEnteroid Immunofluorescence Staining: Fixed enteroids were permeabilized with Triton X-100 for 30 min and blocked with 1% normal donkey serum (PBS) for 30 min at RT. Enteroids were stained with primary antibodies against LYZ1 (DAKO, 1:100, rabbit), MUC2 (Santa Cruz, 1:100, rabbit), and DCLK1 (Santa Cruz, 1:100, goat). […]"}, "[7]": {"settings": "short-term succinate vs untreated controls"}, "[8]": {"settings": "succinate-treated intestinal tissues"}}, "note": "Like-named read-outs stand apart in the source and are kept apart here.", "data": [{"compound": "O=C(O)CCC(=O)O", "note": "[succinate, succinic acid]", "values": [{"measurement": "weight gain", "setting": "TNFΔARE/+ animals, succinate in drinking water", "value": "failed to gain as much weight as untreated controls"}, {"measurement": "weight gain", "setting": "wildtype animals treated with succinate", "value": "minimal weight gain"}, {"measurement": "IL-17A", "setting": "[1]; short-term (<1 week) succinate", "value": "significant increase"}, {"measurement": "IL-17F", "setting": "[1]; short-term (<1 week) succinate", "value": "significant increase"}, {"measurement": "IL-22 levels", "setting": "[1]; short-term (<1 week) succinate", "value": "increased levels"}, {"measurement": "IL-23 levels", "setting": "[1]; short-term (<1 week) succinate", "value": "significantly reduced"}, {"measurement": "IL-27 expression", "setting": "[1]; short-term (<1 week) succinate", "value": "induced"}, {"measurement": "IL-5", "setting": "[1]; short-term succinate", "value": "increased"}, {"measurement": "IL-9", "setting": "[1]; short-term succinate", "value": "increased"}, {"measurement": "IL-10", "setting": "[1]; short-term succinate", "value": "increased"}, {"measurement": "IL-4 levels", "setting": "[1]; [7]", "value": "significantly increased"}, {"measurement": "IL-13 levels", "setting": "[1]; [7]", "value": "significantly increased"}, {"measurement": "IL-25 levels", "setting": "[1]; [7]", "value": "significantly increased"}, {"measurement": "TNF-α levels", "setting": "[1]; succinate treatment", "value": "did not result in decreased TNF-α levels"}, {"measurement": "FOXP3+ T-regulatory cells", "setting": "[2]; long-term (1 month) succinate treatment", "value": "significantly reduced"}, {"measurement": "DCLK1+ tuft cells", "setting": "[2]; succinate-treated", "value": "increased"}, {"measurement": "stromal LYZ1 expression", "setting": "[2]; succinate-treated", "value": "less stromal LYZ1 expression"}, {"measurement": "depth of inflammation (0-4), pathological scoring", "setting": "[2]; succinate-treated vs control", "value": "decreased mucosal destruction"}, {"measurement": "extent of tissue injury (0-4), pathological scoring", "setting": "[2]; succinate-treated vs control", "value": "decreased mucosal destruction"}, {"measurement": "tuft cell expansion", "setting": "[3]; exogenous succinate administration, small intestine", "value": "induces tuft cell expansion"}, {"measurement": "tuft cell expansion in the colon", "setting": "[3]; succinate administration, colon", "value": "did not induce tuft cell expansion"}, {"measurement": "GATA3+ cells", "setting": "[3]; [8]", "value": "increased"}, {"measurement": "major basic protein-positive eosinophils", "setting": "[3]; [8]", "value": "increased"}, {"measurement": "tuft cell expansion", "setting": "[4]", "value": "restored tuft cell expansion to microbiome-replete levels"}, {"measurement": "expression of Idh3b, Idh3a, Sdha, Sdhd in the tuft cell lineage", "setting": "[5]; exogenous succinate treatment", "value": "induced"}, {"measurement": "expression of genes such as Sdhc in the secretory lineage", "setting": "[5]; succinate treatment", "value": "significantly reduced"}, {"measurement": "relative expression of Mdh2 and Sdhc in enterocytes", "setting": "[5]; untreated and succinate-treated enterocytes", "value": "constitutively high"}]}, {"compound": "IL-13: type 2 cytokine interleukin-13 administered to enteroids", "values": [{"measurement": "tuft cell specification and expansion", "setting": "[6]", "value": "induced tuft cell specification and expansion"}]}]}
